Data taken from patent US20230047208A1, “RNA Splicing Modulation” (The General Hospital Corporation, priority 2020, published 2023).

Experiments:
SETD5 minigene, Exon X = test: SETD5 minigene splicing assay, RT-PCR; type: cell-based; details: mutated SETD5 minigene
Source text: FIGS. 3E-3G Upper row: The length of the exon triplets cloned into minigenes constructs are shown. The flanking sequences of the 5′ splice sites of Exon X are shown in LOGO plots. The height of each nucleotide was estimated using in silico saturated mutagenesis, with the corresponding closely matched CNN Motifs indicated below the plots. […] Middle row: Splicing changes for Exon X in both wildtype and mutated exon triplets, predicted by the CNN model (left) and measured by RT-PCR of the minigene (right). The RT-PCR experiments were performed in duplicate and independently repeated three times for each minigene to make the bar plots (two-tailed, unpaired Student's t test). Bottom row: Example of splicing changes induced by treatment with Compound (I) in the minigene splicing assays. The percentage for Exon X inclusion is indicated beneath each lane, from treated and untreated conditions in both wildtype and mutated minigenes. […] The statistical significance, as shown in FIGS. 3E-3G, was determined via two-tailed, unpaired Student's test: *p<0.05; **p<0.01; ***p<0.001. […]
Wild-type and mutant double-stranded DNA (dsDNA) fragments, selected based on low nucleotide length and exon-skipping probability, were ordered through GENEWIZ (FragmentGENE). […] Concentrations were determined using a nanodrop spectrometer.

MAPT exon 10 = test: MAPT minigene exon 10 splicing in transfected cell lines; type: cell-based; details: 60 μM, 24 hours, MAPT minigenes, all three mutations tested
Source text: FIGS. 4C-4F Upper row: The sequences at the 5′ splice site of Exon X in patient cells and minigene constructs are shown (FIGS. 4C-4F). The sequences around the 5′ splice site of Exon X are shown in LOGO plots, with the closely matched CNN motifs indicated beneath the plots. […] Middle row: RT-PCR experiments validated treatment responses in patient cell lines carrying specific splice site mutations. The upper bands indicate the isoform in which the middle Exon X is included while the lower bands indicate the isoform in which the middle Exon X is skipped. Each set of gels is one of the triplicates used to generate the bar plots beneath. […] The statistical significance, as shown in FIGS. 4C-4F, was determined via two-tailed, unpaired Student's test: *p<0.05; **p<0.01; ***p<0.001.
In another example from Table 18, several MAPT minigenes encompassing exons 9 to 11 and flanking exon 10 intronic sequences, with the three mutations listed in Table 17: c.1866+3 G>A, c.1865 G>A or c.1788 T>G were prepared. These mutations were predicted by SpliceA1 to promote inclusion of MAPT exon 10. […] An increase in MAPT exon 10 inclusion is responsible for familial frontotemporal dementia and Parkinsonism linked to chromosome 17 (FTDP-17, MIM #600274). […]

Clc1nc(NCc2ccncc2)c2cc[nH]c2n1 [Compound (I), 2-chloro-N-(pyridin-4-ylmethyl)-7H-pyrrolo[2,3-d]pyrimidin-4-amine]
Exon X splicing response confirmed by RT-PCR (SETD5 minigene, Exon X): exclusion | exon 10 splicing (MAPT exon 10): significantly promoted exon 10 exclusion
